# According to patent US9321764B2, “Dihydro-pyrrolopyridinone inhibitors” (AbbVie Inc., priority 2013, dated 2016):
# Tests used:
# [1] = molecular target: T1, BRD4 (BDII_E352-M457) (Homo sapiens, UniProt O60885); experiment: TR-FRET bromodomain binding assay, second bromodomain of BRD4; conditions: His-tagged BD2, 30 nM Alexa647 probe; TR-FRET protocol A-E given per row
# T1 construct: proliferation; Protocol; made in house
# Description: (§1) A time-resolved fluorescence resonance energy transfer (TR-FRET) assay was used to determine the affinities of compounds of the Examples listed in Table 1 for each bromodomain of BRD4. His-tagged first (BD1: amino acids K57-E168) and second (BD2: amino acids E352-E168) bromodomains of BRD4 were expressed and purified. An Alexa647-labeled BET-inhibitor was used as the fluorescent probe in the assay.
# (§2) Compound dilution series were prepared in DMSO via an approximately 3-fold serial dilution from one of the following:
# (§3) Assay method D: 2.5 mM-800 nM
# For Assay methods A, C, and D: Compounds were then diluted 6:100 in assay buffer (20 mM Sodium Phosphate, pH 6.0, 50 mM NaCl, 1 mM Ethylenediaminetetraacetic acid, 0.01% Triton X-100, 1 mM DL-Dithiothreitol) to yield 3× working solutions. […] Twelve μL of this solution were added to the assay plate to reach a final volume of 18 μL.
# TR-FRET data were normalized to the means of 24 no-compound controls (“high”) and 8 controls containing 1 μM un-labeled probe (“low”). Percent inhibition was plotted as a function of compound concentration and the data were fit with the 4 parameter logistic equation to obtain IC50s Inhibition constants (Ki) were calculated from the IC50s, probe Kd and probe concentration. Typical Z′ values were between 0.65 and 0.75.
# [2] = molecular target: T2, BRD4 (BDI_K57-E168) (Homo sapiens, UniProt O60885); experiment: TR-FRET bromodomain binding assay, first bromodomain of BRD4; conditions: His-tagged BD1, 100 nM Alexa647 probe; TR-FRET protocol A-E given per row
# T2 construct: BD1: amino acids K57-E168; made in house
# Description: as §1, §2
# Assay method A: 250 μM-4.2 nM
# Assay method B: 0.47 mM to 7.8 nM
# Assay method C: 500 μM-8.5 nM
# as §3
# Assay method E: 0.047 mM to 0.78 nM or 5-fold serial dilution from Assay method D
# For Assay methods A, C, and D: Compounds were then diluted 6:100 in assay buffer (20 mM Sodium Phosphate, pH 6.0, 50 mM NaCl, 1 mM Ethylenediaminetetraacetic acid, 0.01% Triton X-100, 1 mM DL-Dithiothreitol) to yield 3× working solutions. Six microliters (μL) of the working solution was then transferred to white, low-volume assay plates (Costar #3673). A 1.5× assay mixture containing His-tagged bromodomain, Europium-conjugated anti-His antibody (Invitrogen PV5596) and the Alexa-647-conjugated probe molecule was also prepared. Twelve μL of this solution were added to the assay plate to reach a final volume of 18 μL.
# For Assay methods B and E: Compound dilutions were added directly into white, low-volume assay plates (Perkin Elmer Proxiplate 384 Plus #6008280) using a Labcyte Echo in conjunction with Labcyte Access and Thermo Multidrop CombinL robotics. Compounds were then suspended in eight microliters (μL) of assay buffer (20 mM Sodium Phosphate, pH 6.0, 50 mM NaCl, 1 mM Ethylenediaminetetraacetic acid disodium salt dihydrate, 0.01% Triton X-100, 1 mM DL-Dithiothreitol) containing His-tagged bromodomain, Europium-conjugated anti-His antibody (Invitrogen PV5596) and Alexa-647-conjugated probe.
# The final concentration of 1× assay mixture for assay methods A, B, C, D, and E contains 2% DMSO, 8 nM His-tagged bromodomain, 1 nM Europium-conjugated anti-His-tag antibody and 100 nM or 30 nM probe (for BDI or BDII, respectively) and compound concentration in the range of: 5 μM-85 pM for method A, 9.19 μM 150 pM for method B, 10 μM-169 pM for method C, 50 μM-16 nM for method D, and 0.92 μM-15 pM for method E.
# After a one-hour equilibration at room temperature, TR-FRET ratios were determined using an Envision multilabel plate reader (Ex 340, Em 495/520).
# TR-FRET data were normalized to the means of 24 no-compound controls (“high”) and 8 controls containing 1 μM un-labeled probe (“low”). Percent inhibition was plotted as a function of compound concentration and the data were fit with the 4 parameter logistic equation to obtain IC50s Inhibition constants (Ki) were calculated from the IC50s, probe Kd and probe concentration. Typical Z′ values were between 0.65 and 0.75. The minimum significant ratio was determined to evaluate assay reproducibility (Eastwood et al., (2006) J Biomol Screen, 11: 253-261). The MSR was determined to be 2.03 for BDI and 1.93 for BDII, and a moving MSR (last six run MSR overtime) for both BDI and BDII was typically <3.
SMILES,Ki [1] [nM],Ki [2] [nM]
"Cn1cc(-c2cc(CNS(=O)(=O)c3cc(Cl)sc3Cl)ccc2Oc2ccc(F)cc2F)c2cc[nH]c(=O)c21 [Example 138, 2,5-dichloro-N-[4-(2,4-difluorophenoxy)-3-(1-methyl-7-oxo-6,7-dihydro-1H-pyrrolo[2,3-c]pyridin-3-yl)benzyl]thiophene-3-sulfonamide]",> 4000,1150
"Cn1cc(-c2ccccc2NCC2CC2)c2cc[nH]c(=O)c21 [Example 142, 3-{2-[(cyclopropylmethyl)amino]phenyl}-1-methyl-1,6-dihydro-7H-pyrrolo[2,3-c]pyridin-7-one]",2310,870
"Cn1cc(-c2cc(CS(C)(=O)=O)cnc2Cl)c2cc[nH]c(=O)c21 [Example 143, 3-{2-chloro-5-[(methylsulfonyl)methyl]pyridin-3-yl}-1-methyl-1,6-dihydro-7H-pyrrolo[2,3-c]pyridin-7-one]",1680,446
"Cn1cc(-c2cc(F)cnc2Nc2ccc(F)cc2)c2cc[nH]c(=O)c21 [Example 145, 3-{5-fluoro-2-[(4-fluorophenyl)amino]pyridin-3-yl}-1-methyl-1,6-dihydro-7H-pyrrolo[2,3-c]pyridin-7-one]",296,174
"Cn1cc(-c2cc(N)ccc2Oc2ccc(F)cc2F)c2cc[nH]c(=O)c21 [Example 146, 3-[5-amino-2-(2,4-difluorophenoxy)phenyl]-1-methyl-1,6-dihydro-7H-pyrrolo[2,3-c]pyridin-7-one]",90.1,25.3
"CC(C)CCC(=O)Nc1ccc(Oc2ccc(F)cc2F)c(-c2cn(C)c3c(=O)[nH]ccc23)c1 [Example 147, N-[4-(2,4-difluorophenoxy)-3-(1-methyl-7-oxo-6,7-dihydro-1H-pyrrolo[2,3-c]pyridin-3-yl)phenyl]-4-methylpentanamide]",134,59.4
"COc1ccccc1CC(=O)Nc1ccc(Oc2ccc(F)cc2F)c(-c2cn(C)c3c(=O)[nH]ccc23)c1 [Example 149, N-[4-(2,4-difluorophenoxy)-3-(1-methyl-7-oxo-6,7-dihydro-1H-pyrrolo[2,3-c]pyridin-3-yl)phenyl]-2-(2-methoxyphenyl)acetamide]",54,41.6
"Cn1cc(-c2cc(NC(=O)c3ccccn3)ccc2Oc2ccc(F)cc2F)c2cc[nH]c(=O)c21 [Example 150, N-[4-(2,4-difluorophenoxy)-3-(1-methyl-7-oxo-6,7-dihydro-1H-pyrrolo[2,3-c]pyridin-3-yl)phenyl]pyridine-2-carboxamide]",145,22
"Cn1cc(-c2cc(NC(=O)CCc3ccccc3)ccc2Oc2ccc(F)cc2F)c2cc[nH]c(=O)c21 [Example 152, N-[4-(2,4-difluorophenoxy)-3-(1-methyl-7-oxo-6,7-dihydro-1H-pyrrolo[2,3-c]pyridin-3-yl)phenyl]-3-phenylpropanamide]",95.3,141
"Cn1cc(-c2cc(NC(=O)CCCOc3ccccc3)ccc2Oc2ccc(F)cc2F)c2cc[nH]c(=O)c21 [Example 153, N-[4-(2,4-difluorophenoxy)-3-(1-methyl-7-oxo-6,7-dihydro-1H-pyrrolo[2,3-c]pyridin-3-yl)phenyl]-4-phenoxybutanamide]",293,321
"Cn1cc(-c2cc(NC(=O)c3ccc(COc4ccccc4)cc3)ccc2Oc2ccc(F)cc2F)c2cc[nH]c(=O)c21 [Example 156, N-[4-(2,4-difluorophenoxy)-3-(1-methyl-7-oxo-6,7-dihydro-1H-pyrrolo[2,3-c]pyridin-3-yl)phenyl]-4-(phenoxymethyl)benzamide]",> 920,598
"Cn1cc(-c2cc(NC(=O)C3CCN(c4ccccc4)C3=O)ccc2Oc2ccc(F)cc2F)c2cc[nH]c(=O)c21 (stereo not shown) [Example 157, N-[4-(2,4-difluorophenoxy)-3-(1-methyl-7-oxo-6,7-dihydro-1H-pyrrolo[2,3-c]pyridin-3-yl)phenyl]-2-oxo-1-phenylpyrrolidine-3-carboxamide]",333,118
"Cn1cc(-c2cc(NC(=O)Cc3noc4ccccc34)ccc2Oc2ccc(F)cc2F)c2cc[nH]c(=O)c21 [Example 158, 2-(1,2-benzoxazol-3-yl)-N-[4-(2,4-difluorophenoxy)-3-(1-methyl-7-oxo-6,7-dihydro-1H-pyrrolo[2,3-c]pyridin-3-yl)phenyl]acetamide]",153,76.4
"Cn1cc(-c2cc(NC(=O)Cc3cc(Cl)ccc3F)ccc2Oc2ccc(F)cc2F)c2cc[nH]c(=O)c21 [Example 159, 2-(5-chloro-2-fluorophenyl)-N-[4-(2,4-difluorophenoxy)-3-(1-methyl-7-oxo-6,7-dihydro-1H-pyrrolo[2,3-c]pyridin-3-yl)phenyl]acetamide]",59.6,62.4
"Cn1cc(-c2cc(NC(=O)Cc3ccc(Cl)cc3F)ccc2Oc2ccc(F)cc2F)c2cc[nH]c(=O)c21 [Example 160, 2-(4-chloro-2-fluorophenyl)-N-[4-(2,4-difluorophenoxy)-3-(1-methyl-7-oxo-6,7-dihydro-1H-pyrrolo[2,3-c]pyridin-3-yl)phenyl]acetamide]",> 408,101
"Cc1ccc(CC(=O)Nc2ccc(Oc3ccc(F)cc3F)c(-c3cn(C)c4c(=O)[nH]ccc34)c2)cn1 [Example 161, N-[4-(2,4-difluorophenoxy)-3-(1-methyl-7-oxo-6,7-dihydro-1H-pyrrolo[2,3-c]pyridin-3-yl)phenyl]-2-(6-methylpyridin-3-yl)acetamide]",79.1,> 238
"Cn1cc(-c2cc(NC(=O)Cc3ccc4c(c3)CCCO4)ccc2Oc2ccc(F)cc2F)c2cc[nH]c(=O)c21 [Example 162, N-[4-(2,4-difluorophenoxy)-3-(1-methyl-7-oxo-6,7-dihydro-1H-pyrrolo[2,3-c]pyridin-3-yl)phenyl]-2-(3,4-dihydro-2H-chromen-6-yl)acetamide]",183,146
"Cc1ncc(CC(=O)Nc2ccc(Oc3ccc(F)cc3F)c(-c3cn(C)c4c(=O)[nH]ccc34)c2)s1 [Example 163, N-[4-(2,4-difluorophenoxy)-3-(1-methyl-7-oxo-6,7-dihydro-1H-pyrrolo[2,3-c]pyridin-3-yl)phenyl]-2-(2-methyl-1,3-thiazol-5-yl)acetamide]",81.3,24
"Cc1cc(CC(=O)Nc2ccc(Oc3ccc(F)cc3F)c(-c3cn(C)c4c(=O)[nH]ccc34)c2)nn1C [Example 164, N-[4-(2,4-difluorophenoxy)-3-(1-methyl-7-oxo-6,7-dihydro-1H-pyrrolo[2,3-c]pyridin-3-yl)phenyl]-2-(1,5-dimethyl-1H-pyrazol-3-yl)acetamide]",73,11
"Cn1cc(-c2cc(NC(=O)Cn3cc(-c4ccccc4F)cn3)ccc2Oc2ccc(F)cc2F)c2cc[nH]c(=O)c21 [Example 165, N-[4-(2,4-difluorophenoxy)-3-(1-methyl-7-oxo-6,7-dihydro-1H-pyrrolo[2,3-c]pyridin-3-yl)phenyl]-2-[4-(2-fluorophenyl)-1H-pyrazol-1-yl]acetamide]",105,214
